Assay [1] concerns the target T1, Full-length human recombinant N-term FLAG-tagged MASTL protein (Homo sapiens, UniProt Q96GX5).
T1 sequence (Q96GX5 1-879): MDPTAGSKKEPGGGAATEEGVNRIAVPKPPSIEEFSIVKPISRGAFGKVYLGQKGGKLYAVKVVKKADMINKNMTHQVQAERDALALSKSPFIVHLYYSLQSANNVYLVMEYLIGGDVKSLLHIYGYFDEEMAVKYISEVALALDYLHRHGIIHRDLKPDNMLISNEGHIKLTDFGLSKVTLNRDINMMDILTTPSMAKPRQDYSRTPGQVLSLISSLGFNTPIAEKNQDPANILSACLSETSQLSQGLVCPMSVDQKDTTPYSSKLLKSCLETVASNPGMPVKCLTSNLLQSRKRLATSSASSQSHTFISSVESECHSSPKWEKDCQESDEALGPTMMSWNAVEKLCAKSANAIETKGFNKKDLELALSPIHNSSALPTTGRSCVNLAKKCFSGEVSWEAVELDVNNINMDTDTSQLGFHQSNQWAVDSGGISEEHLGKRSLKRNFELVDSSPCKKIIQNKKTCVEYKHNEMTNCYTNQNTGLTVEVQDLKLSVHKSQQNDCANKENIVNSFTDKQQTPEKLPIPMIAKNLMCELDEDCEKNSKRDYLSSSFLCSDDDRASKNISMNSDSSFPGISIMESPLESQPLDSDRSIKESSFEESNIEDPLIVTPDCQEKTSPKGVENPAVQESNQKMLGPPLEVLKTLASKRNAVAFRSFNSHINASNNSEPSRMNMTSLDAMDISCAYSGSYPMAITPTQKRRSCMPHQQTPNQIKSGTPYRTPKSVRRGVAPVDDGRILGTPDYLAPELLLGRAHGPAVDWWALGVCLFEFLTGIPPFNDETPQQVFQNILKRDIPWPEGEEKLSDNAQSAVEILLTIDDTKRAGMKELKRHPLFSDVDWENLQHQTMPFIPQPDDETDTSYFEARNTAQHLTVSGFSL
Kind of assay: MASTL enzyme kinase assay (CHEF PhosphoSens). To be noted: MASTL Ki (nM), 3 nM MASTL, 1 mM ATP, room temperature; geometric mean of at least 3 independent determinations (* denotes n = 2).
Description: MASTL enzyme kinase assay was used to measure the inhibition constant (Ki) of Examples of the present invention.
Full-length human recombinant N-term FLAG-tagged MASTL protein (construct LJIC-3077G2), activated by CDK1, was produced at Pfizer Inc by expression in baculovirus-infected insect cells. All reagents were purchased from Sigma-Aldrich, Inc (St. Louis, MO), unless specified otherwise. Tween™ 20 detergent (10% Solution) was purchased from EMD Millipore Corp (Billerica, MA). The CHEF phosphoacceptor peptide substrate (AQT0693) was purchased from AssayQuant technologies, Inc (Marlboro, MA). […] The reactions contained 1 mM ATP and were initiated by the addition of enzyme. Initial reaction velocities were determined by following the fluorescence (λex=360 nm, λem=485 nm) of appropriate CHEF peptide substrate for 120 minutes in an end-point mode in a SpectraMax Paradigm Microplate Reader (Molecular Devices, LLC. San Jose, California). The extents of reactions were estimated to be <20%.

Another assay deals with breast cancer cells. The settings on record: in breast cancer cells; Kang et al., Pharmaceuticals 2021; read-out: cellular IC50; cited from earlier work.

In the case of `CCn1nncc1-c1cc2cc(Nc3cc(C4(N)CCCC4)ccn3)ncc2c(N)n1` [Example 38, N^6-(4-(1-aminocyclopentyl)pyridin-2-yl)-3-(1-ethyl-1H-1,2,3-triazol-5-yl)-2,7-naphthyridine-1,6-diamine], the Ki in assay [1] worked out at 0.019 nM.
For the compound `N#CCc1ccc(Nc2nc(Nc3cc(C4CC4)[nH]n3)c3ccccc3n2)cc1` [MKI-2, 2-(4-((4-((5-cyclopropyl-1H-pyrazol-3-yl)amino)quinazolin-2-yl)amino)phenyl)acetonitrile], in the assay with breast cancer cells, the IC50 was 143 nM.

(Values after patent US20260258033A1, “2,7-Naphthyridine Compounds as MASTL Inhibitors” (Pfizer Inc., priority 2022, published 2026).)
